Values of other authors in US20220142892A1, “PROCESS FOR THE PREPARATION AND USE OF HAIR TREATMENT COMPOSITIONS CONTAINING ORGANIC C1-C6 ALKOXY SILANES” (Henkel AG & Co. KGaA, priority 2019, published 2022).

Settings: 25° C.

SMILES	solubility in water (in words)	solubility in water
O=C([O-])C1=NN(c2ccc(S(=O)(=O)[O-])cc2)C(=O)C1N=Nc1ccc(S(=O)(=O)[O-])cc1.[Na+].[Na+].[Na+] (stereo not shown) [Acid Yellow 23, trisodium salt of 4,5-dihydro-5-oxo-1-(4-sulfophenyl)-4-((4-sulfophenyl)azo)-1H-pyrazole-3-carboxylic acid]	highly soluble	
Nc1cc(S(=O)(=O)[O-])cc2cc(S(=O)(=O)[O-])c(N=Nc3ccccc3)c(O)c12.[Na+].[Na+] [Acid Red 33, diantrium salt of 5-amino-4-hydroxy-3-(phenylazo)-naphthalene-2,7-disulphonate]		2.5 mg/mL
O=C([O-])c1c(Cl)c(Cl)c(Cl)c(Cl)c1-c1c2c(Br)cc(=O)c(Br)c-2oc2c(Br)c(O)cc(Br)c12.O=C([O-])c1c(Cl)c(Cl)c(Cl)c(Cl)c1-c1c2c(Br)cc(=O)c(Br)c-2oc2c(Br)c(O)cc(Br)c12.[Na+].[Na+] [Acid Red 92, disodium salt of 3,4,5,6-tetrachloro-2-(1,4,5,8-tetrabromo-6-hydroxy-3-oxoxanthen-9-yl)benzoic acid]		greater than 10 g/L
O=S(=O)([O-])c1ccc(N=Nc2c(O)ccc3ccccc23)cc1.[Na+] [Acid Orange 7, sodium salt of 4-[(2-hydroxy-1-naphthyl)azo]benzene sulphonate]		more than 7 g/L
